Columns and labels:
[1] = target: GluN1-1a/GluN2B NMDAR (wildtype) (Rattus norvegicus, UniProt P35439+Q00960); assay type: cell-based; details: for IC50 / p (slope of the dose-response curve) / A2 ± SE (maximum inhibition from dose-response curve): TEVC, wildtype; for IC50: holding potential −70 mV, 10 µM glycine and 10 µM (S)-glutamate, read-out: IC50 ± SE; for p (slope of the dose-response curve) / A2 ± SE (maximum inhibition from dose-response curve): −70 mV; for A2 ± SE (maximum inhibition from dose-response curve): flexible A2
[2] = test system: more than 100 relevant receptors, transporters and enzymes including adrenergic (α1), dopaminergic (D1, D2), opioid (κ, μ, δ) and serotonergic receptors …; parameters: method as in earlier work; details: concentration of 1 - 3 µM; ref 2 (Tewes et al., Bioorg. Med. Chem. 2010); cited from earlier work
[3] = target: T1, GluN1-1a WT/GluN2B F176A (Rattus norvegicus, UniProt P35439+Q00960, F176A); details: GluN2B F176A
[4] = target: T2, GluN1-1a WT/GluN2B Q110A (Rattus norvegicus, UniProt P35439+Q00960, Q110A); details: GluN2B Q110A
[5] = target: GluN1-1a/GluN2C NMDAR (Rattus norvegicus, UniProt P35439+Q00961); assay: cell-based; details: read-out: ion current inhibition % ± SEM, GluN2C
[6] = target: T3, GluN1-1a WT/GluN2B F114A (Rattus norvegicus, UniProt P35439+Q00960, F114A); details: GluN2B F114A
[7] = target: T4, GluN1-1a WT/GluN2B F176Y (Rattus norvegicus, UniProt P35439+Q00960, F176Y); details: GluN2B F176Y
[8] = target: T5, GluN1-1a Y109S/GluN2B WT (Rattus norvegicus, UniProt P35439+Q00960, Y109S); details: GluN1-1a Y109S
[9] = target: T4, GluN1-1a WT/GluN2B F176Y; assay: cell-based
[10] = target: T6, GluN1-1a L135N/GluN2B WT (Rattus norvegicus, UniProt P35439+Q00960, L135N); assay: cell-based
[11] = target: T1, GluN1-1a WT/GluN2B F176A; assay: cell-based
[12] = target: GluN1-1a/GluN2D NMDAR (Rattus norvegicus, UniProt P35439+Q62645); assay: cell-based; details: read-out: ion current inhibition % ± SEM, GluN2D
[13] = target: GluN1-1a/GluN2A NMDAR (Rattus norvegicus, UniProt P35439+Q00959); assay: cell-based; details: read-out: ion current inhibition % ± SEM, GluN2A
[14] = target: T5, GluN1-1a Y109S/GluN2B WT; assay: cell-based
[15] = target: T7, GluN1-1a/GluN2B (ifenprodil binding site) (Homo sapiens, UniProt Q05586+Q13224); details: displacement of [3H]ifenprodil; Ki values previously published; read-out: Ki + SEM; cited from earlier work
T7 construct: expressed in transfected cells; host or cells: mouse L(tk) cells, dexamethasone-inducible expression; membrane fraction

[16] = target: T8, GluN1-1a WT/GluN2B I111A (Rattus norvegicus, UniProt P35439+Q00960, I111A); assay: cell-based
[17] = target: T9, GluN1-1a S132A/GluN2B WT (Rattus norvegicus, UniProt P35439+Q00960, S132A); details: GluN1-1a S132A
[18] = target: T9, GluN1-1a S132A/GluN2B WT; assay: cell-based
[19] = target: T10, GluN1-1a F113S/GluN2B WT (Rattus norvegicus, UniProt P35439+Q00960, F113S); details: GluN1-1a F113S
[20] = target: T10, GluN1-1a F113S/GluN2B WT; assay: cell-based
[21] = target: GluN1-1a WT/GluN2B E236A (Rattus norvegicus, UniProt P35439+Q00960, E236A); details: GluN2B E236A
[22] = target: T2, GluN1-1a WT/GluN2B Q110A; assay: cell-based
[23] = target: T8, GluN1-1a WT/GluN2B I111A; details: GluN2B I111A
[24] = target: T3, GluN1-1a WT/GluN2B F114A; assay: cell-based
[25] = target: T6, GluN1-1a L135N/GluN2B WT; details: GluN1-1a L135N
[26] = maximum inhibition fixed to wildtype value

T1 sequence (Q00960 27-1482 F176A, other chains not shown): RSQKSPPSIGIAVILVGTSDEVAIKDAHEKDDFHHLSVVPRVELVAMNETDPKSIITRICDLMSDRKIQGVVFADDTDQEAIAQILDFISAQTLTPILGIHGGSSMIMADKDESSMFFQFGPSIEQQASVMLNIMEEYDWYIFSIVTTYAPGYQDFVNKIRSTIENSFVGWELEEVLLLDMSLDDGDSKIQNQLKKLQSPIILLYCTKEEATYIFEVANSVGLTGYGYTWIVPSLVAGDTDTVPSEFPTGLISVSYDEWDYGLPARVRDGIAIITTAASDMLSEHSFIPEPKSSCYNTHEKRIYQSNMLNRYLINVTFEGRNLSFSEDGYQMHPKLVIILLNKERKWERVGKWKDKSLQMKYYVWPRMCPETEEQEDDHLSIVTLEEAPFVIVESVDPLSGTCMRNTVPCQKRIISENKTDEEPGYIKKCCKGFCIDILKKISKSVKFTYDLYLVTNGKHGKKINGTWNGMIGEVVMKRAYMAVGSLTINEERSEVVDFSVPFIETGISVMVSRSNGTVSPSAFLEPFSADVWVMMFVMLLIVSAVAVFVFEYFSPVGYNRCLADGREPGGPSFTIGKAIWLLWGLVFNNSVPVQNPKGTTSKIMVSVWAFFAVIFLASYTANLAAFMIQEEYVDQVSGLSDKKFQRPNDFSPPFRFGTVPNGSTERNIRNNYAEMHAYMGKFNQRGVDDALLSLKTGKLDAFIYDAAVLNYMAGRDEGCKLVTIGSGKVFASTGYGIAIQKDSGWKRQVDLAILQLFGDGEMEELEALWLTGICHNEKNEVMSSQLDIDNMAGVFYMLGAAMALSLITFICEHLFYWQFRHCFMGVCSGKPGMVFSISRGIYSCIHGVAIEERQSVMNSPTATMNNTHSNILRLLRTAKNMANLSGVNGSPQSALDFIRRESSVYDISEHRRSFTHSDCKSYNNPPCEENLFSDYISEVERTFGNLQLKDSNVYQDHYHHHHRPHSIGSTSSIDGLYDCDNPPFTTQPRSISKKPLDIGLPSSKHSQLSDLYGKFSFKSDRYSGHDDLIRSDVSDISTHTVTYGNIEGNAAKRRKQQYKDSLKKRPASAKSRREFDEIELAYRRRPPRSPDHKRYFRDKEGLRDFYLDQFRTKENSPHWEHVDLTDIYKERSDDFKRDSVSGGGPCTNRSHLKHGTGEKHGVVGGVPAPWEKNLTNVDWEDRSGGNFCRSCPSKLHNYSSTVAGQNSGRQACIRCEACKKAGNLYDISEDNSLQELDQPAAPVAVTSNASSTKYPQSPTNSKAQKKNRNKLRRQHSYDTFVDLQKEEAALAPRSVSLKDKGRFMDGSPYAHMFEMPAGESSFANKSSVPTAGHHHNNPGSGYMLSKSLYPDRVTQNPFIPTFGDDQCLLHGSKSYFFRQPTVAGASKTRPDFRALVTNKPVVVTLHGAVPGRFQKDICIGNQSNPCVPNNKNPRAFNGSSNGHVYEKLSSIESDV
T3 sequence (Q00960 27-1482 F114A, other chains not shown): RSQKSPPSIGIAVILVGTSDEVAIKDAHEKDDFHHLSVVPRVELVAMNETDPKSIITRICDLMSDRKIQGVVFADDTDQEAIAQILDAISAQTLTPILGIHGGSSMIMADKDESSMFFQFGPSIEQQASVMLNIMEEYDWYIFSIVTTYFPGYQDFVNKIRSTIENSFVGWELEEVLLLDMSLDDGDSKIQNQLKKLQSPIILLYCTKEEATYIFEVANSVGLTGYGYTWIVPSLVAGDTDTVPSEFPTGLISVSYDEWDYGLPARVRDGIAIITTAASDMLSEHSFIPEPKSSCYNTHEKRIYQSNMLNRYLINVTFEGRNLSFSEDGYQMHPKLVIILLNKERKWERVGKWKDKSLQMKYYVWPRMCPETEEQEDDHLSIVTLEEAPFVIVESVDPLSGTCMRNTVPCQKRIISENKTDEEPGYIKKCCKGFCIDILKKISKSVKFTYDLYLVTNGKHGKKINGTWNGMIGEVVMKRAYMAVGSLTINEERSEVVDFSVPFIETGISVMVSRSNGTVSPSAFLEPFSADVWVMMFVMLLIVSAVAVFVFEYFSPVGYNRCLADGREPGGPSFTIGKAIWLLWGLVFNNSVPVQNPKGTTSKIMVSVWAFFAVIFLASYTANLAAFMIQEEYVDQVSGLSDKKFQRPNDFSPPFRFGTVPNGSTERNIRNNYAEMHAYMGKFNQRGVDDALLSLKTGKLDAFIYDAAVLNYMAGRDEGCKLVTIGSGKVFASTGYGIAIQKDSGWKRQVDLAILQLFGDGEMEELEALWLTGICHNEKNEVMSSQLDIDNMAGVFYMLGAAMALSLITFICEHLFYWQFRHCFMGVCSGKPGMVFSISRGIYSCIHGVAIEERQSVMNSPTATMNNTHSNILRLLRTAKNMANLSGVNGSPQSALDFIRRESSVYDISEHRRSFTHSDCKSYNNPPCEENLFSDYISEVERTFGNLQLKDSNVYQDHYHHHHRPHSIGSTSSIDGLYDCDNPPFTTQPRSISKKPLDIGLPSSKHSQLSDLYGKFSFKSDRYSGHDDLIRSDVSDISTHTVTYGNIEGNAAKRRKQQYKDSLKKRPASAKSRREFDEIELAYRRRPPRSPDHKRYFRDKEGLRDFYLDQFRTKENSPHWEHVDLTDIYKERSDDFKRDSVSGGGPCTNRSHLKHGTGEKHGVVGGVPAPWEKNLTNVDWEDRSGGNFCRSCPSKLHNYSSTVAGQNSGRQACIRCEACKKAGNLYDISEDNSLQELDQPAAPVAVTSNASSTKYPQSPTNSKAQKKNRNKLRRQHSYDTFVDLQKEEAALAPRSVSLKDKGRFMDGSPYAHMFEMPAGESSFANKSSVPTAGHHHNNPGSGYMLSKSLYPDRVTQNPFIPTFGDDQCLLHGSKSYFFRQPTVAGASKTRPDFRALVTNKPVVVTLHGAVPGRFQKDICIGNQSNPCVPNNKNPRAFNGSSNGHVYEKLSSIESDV
T4 sequence (Q00960 27-1482 F176Y, other chains not shown): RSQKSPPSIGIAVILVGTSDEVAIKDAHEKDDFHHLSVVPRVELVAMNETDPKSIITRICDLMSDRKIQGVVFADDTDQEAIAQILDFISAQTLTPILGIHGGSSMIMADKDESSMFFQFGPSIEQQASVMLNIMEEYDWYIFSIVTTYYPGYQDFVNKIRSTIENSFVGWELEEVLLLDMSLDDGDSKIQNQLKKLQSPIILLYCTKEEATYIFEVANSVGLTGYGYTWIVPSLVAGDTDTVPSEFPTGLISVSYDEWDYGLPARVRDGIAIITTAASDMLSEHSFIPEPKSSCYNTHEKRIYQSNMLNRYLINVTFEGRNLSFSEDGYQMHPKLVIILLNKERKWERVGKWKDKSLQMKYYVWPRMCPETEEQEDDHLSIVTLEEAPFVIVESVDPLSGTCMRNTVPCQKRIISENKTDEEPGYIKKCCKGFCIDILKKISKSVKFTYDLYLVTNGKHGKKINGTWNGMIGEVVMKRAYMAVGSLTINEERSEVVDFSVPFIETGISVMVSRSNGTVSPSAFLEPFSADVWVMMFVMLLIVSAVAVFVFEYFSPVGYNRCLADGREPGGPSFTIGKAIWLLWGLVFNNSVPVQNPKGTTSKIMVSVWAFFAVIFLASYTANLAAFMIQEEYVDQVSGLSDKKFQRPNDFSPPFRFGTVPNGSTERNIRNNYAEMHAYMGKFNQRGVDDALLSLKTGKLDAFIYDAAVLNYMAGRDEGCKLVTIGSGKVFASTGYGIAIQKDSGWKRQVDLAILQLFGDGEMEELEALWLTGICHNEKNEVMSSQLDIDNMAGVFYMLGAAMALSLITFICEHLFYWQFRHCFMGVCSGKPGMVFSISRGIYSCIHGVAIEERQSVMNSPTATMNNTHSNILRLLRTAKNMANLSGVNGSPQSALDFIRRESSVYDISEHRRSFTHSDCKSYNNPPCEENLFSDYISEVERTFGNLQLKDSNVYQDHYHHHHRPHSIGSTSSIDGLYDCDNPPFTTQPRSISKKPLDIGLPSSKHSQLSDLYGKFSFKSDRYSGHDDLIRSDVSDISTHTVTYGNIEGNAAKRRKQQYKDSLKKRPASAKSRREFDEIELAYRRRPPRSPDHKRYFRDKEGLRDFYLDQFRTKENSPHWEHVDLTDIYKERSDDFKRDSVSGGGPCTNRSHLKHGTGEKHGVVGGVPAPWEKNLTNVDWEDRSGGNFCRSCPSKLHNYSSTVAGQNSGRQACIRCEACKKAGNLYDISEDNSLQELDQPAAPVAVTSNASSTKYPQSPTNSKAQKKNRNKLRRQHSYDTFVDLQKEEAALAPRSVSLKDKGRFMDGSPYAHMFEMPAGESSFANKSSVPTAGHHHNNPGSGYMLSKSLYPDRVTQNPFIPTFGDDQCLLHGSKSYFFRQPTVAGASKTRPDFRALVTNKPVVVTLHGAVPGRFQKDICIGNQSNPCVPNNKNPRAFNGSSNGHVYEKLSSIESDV

Oc1ccc2c(c1)CCN(CCCCc1ccccc1)CC2O (racemic) [compound rac-1]
IC50 [1]: 94 ± 8 nM | p (slope of the dose-response curve) [1]: 1.25 | A2 ± SE (maximum inhibition from dose-response curve) [1]: 93 ± 2% | competition with the employed radioligands [2]: did not compete

Oc1ccc2c(c1)CCN(CCCCc1ccccc1)C[C@H]2O [compound (S)-1]
p (slope) [3]: 1.00 | A2, fixed-to-wildtype (*) [3, 26]: 95% | p (slope) [4]: 1.27 | A2 ± SE ([4]; flexible A2): 94 ± 2% | inhibition at 10 µM [5]: 19 ± 2% | p (slope) [6]: 1.26 | A2, fixed-to-wildtype (*) [6, 26]: 95% | p (slope) [7]: 0.82 | A2, fixed-to-wildtype (*) [7, 26]: 95% | p (slope) [8]: 0.85 | A2 ± SE ([8]; flexible A2): 79 ± 4% | IC50 [9]: 261 ± 25 nM | IC50 [10]: 3660 ± 1180 nM | IC50 [11]: 15500 ± 1790 nM | inhibition at 10 µM [12]: 21 ± 3% | inhibition at 10 µM [13]: 6 ± 2% | IC50 [14]: 764 ± 189 nM | IC50 [1]: 206 ± 23 nM | p (slope of the dose-response curve) [1]: 0.98 | A2 ± SE (maximum inhibition from dose-response curve) [1]: 95 ± 2% | inhibition at 10 µM ([1]; read-out: ion current inhibition % ± SEM, GluN2B): 93 ± 1% | Ki [15]: 740 ± 61 nM | IC50 [16]: 1560 ± 504 nM | p (slope) [17]: 1.16 | A2 ± SE ([17]; flexible A2): 89 ± 1% | IC50 [18]: 691 ± 44 nM | p (slope) [19]: 0.87 | A2 ± SE ([19]; flexible A2): 89 ± 4% | IC50 [20]: 756 ± 137 nM | p (slope) [21]: 0.99 | A2 ± SE ([21]; flexible A2): 96 ± 8% | IC50 [22]: 243 ± 34 nM | p (slope) [23]: 0.89 | A2 ± SE ([23]; flexible A2): 73 ± 6% | IC50 [24]: 38900 ± 5280 nM | p (slope) [25]: 0.98 | A2 ± SE ([25]; flexible A2): 68 ± 7%

From paper PMC6858350, “A common mechanism allows selective targeting of GluN2B subunit-containing N-methyl-D-aspartate receptors” (Communications Biology, 2019)
